Laboratory results: patent US8044089B2, “3-3-di-substituted-oxindoles as inhibitors of translation initiation” (President and Fellows of Harvard College, priority 2004, dated 2011)
Entries after “also recorded” stand apart in the source; their conditions may differ. Where two headings read alike, the source gives them in different places.

Tests used:
[1] = tested on: ternary complex in transgenic KLN cells; assay: Ternary complex assay; type: cell-based
Protocol: FIGS. 3A-3C depict compound 1181 activity. (A) depicts the drug induced phosphorylation of eIF2α protein in control (lane 1), positive control (lane 2) and 1181 (lane 3) measured using Western blot analysis.
(§1) Ternary complex assay was 8-fold over DMSO at 20 μM, and cell growth was inhibited at <1 μM. The plasma levels for this in mice were estimated using liquid chromatography and mass spectrometry (LC-MS). Compound 1430 was orally administered at 160 mg/kg, 240 mg/kg, and 320 mg/kg to DBA/2J mice and the plasma concentration was measured at three time points, one hour, three hours, and six hours, and is set forth in Table 15. The plasma was isolated from the mice by heart-lung puncture and the samples were processed and analyzed by LC-MS. The concentrations at each time and dose are in nmoles/mL of plasma (n.d.=not detected; X=not determined).

eIF2α = eIF2α phosphorylation measured by Western blot; type: cell-based; conditions: for eIF2α-P (phosphorylation of eIF2α measured by Western blot): unit or reference not given
Procedure, shortened: (§2)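 Ca2+ release scored in FURA-2AM loaded cells as "+" (release) or "+/−" (inconclusive); some compounds also tested with ER-targeted FRET Ca2+ sensors. Ca2+-depleting compounds were then tested for eIF2α phosphorylation by Western blot with phospho-specific anti-eIF2α antibody.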

A549 lung cancer cells = assay: SRB growth inhibition of A549 lung cancer cells; type: cell-based, human; conditions: for IC50: Homo sapiens
[2] = tested on: intracellular Ca^2+ stores; assay: Ca2+ release from intracellular stores (FURA-2AM loaded cells); type: cell-based; set-up: key to Ca^2+ (Ca^2+ release from intracellular stores): a “+” denotes release; a “+/−” denotes inconclusive
Procedure, shortened: as §2

[3] = tested on: squamous cell carcinoma (KLN) tumor; assay: Squamous cell carcinoma (KLN) tumor mass in mice; type: in vivo; conditions: DBA/2J mice, oral, 320 mg/kg/day, six weeks
[4] = tested on: endoplasmic reticulum (ER) Ca^2+; assay: Depletion of endoplasmic reticulum Ca2+ (ER-targeted cameleon proteins, FRET); type: cell-based; conditions: ER-targeted Ca^2+-sensitive proteins
Protocol: FIGS. 2A-2B depict compound 1181 activity. […] These proteins emit light and the Ca^2+ content is measured by fluorescent resonance energy transfer (FRET).
Without intending to be bound by theory, the mechanism of action of translation initiation inhibitors is set forth in FIG. 1, and includes the depletion (complete or partial depletion) of intracellular calcium (Ca^2+) stores and phosphorylation of eIF2α. Compounds synthesized using the approaches described herein were screened for their ability to partially deplete intracellular Ca^2+ stores using FURA-2AM loaded cells (Benzaquen et al. (1995) Nature Medicine, 1:534, incorporated herein by reference in its entirety for all purposes). A limited subset of compounds were further screened for their ability to deplete endoplasmic reticulum (ER) Ca^2+. The Ca^2+ content of the ER was monitored using ER-targeted, Ca^2+ sensitive, recombinant proteins. These recombinant proteins emitted light by fluorescent resonance energy transfer (FRET) as a function of the Ca^2+ content of the medium. […] Compounds that depleted Ca^2+ were further evaluated for their ability to phosphorylate eIF2α. eIF2α phosphorylation was measured by Western blot analysis using the phospho-specific anti-eIF2α antibody, as previously described (Aktas et al. (1998) Proc. Natl. Acad. Sci. USA, 95:8280, incorporated herein by reference in its entirety for all purposes).

[5] = Plasma levels after oral administration (LC-MS); type: in vivo; conditions: mouse, DBA/2J mice
Protocol: as §1

[6] = A549 lung cancer cells, unit inferred, read-out: SRB (IC50 for growth inhibition of A549 lung cancer cells)

Structure (SMILES) | depletion of ternary complex (in words) ([1]; transgenic KLN cells) | eIF2α phosphorylation (in words) (eIF2α) | eIF2α-P (phosphorylation of eIF2α measured by Western blot) (eIF2α) | growth inhibition of cancer cells (in words) (A549 lung cancer cells; A549) | IC50 (A549 lung cancer cells; [6]) | Ca^2+ (Ca^2+ release from intracellular stores) [2] | Ca^2+ release / depletion of intracellular Ca^2+ (in words) [2] | squamous cell carcinoma (KLN) tumor mass [3] | depletion of ER Ca^2+ (in words) [4] | Ternary complex assay over DMSO ([1]; at 20 μM, over DMSO) | increase in eIF2α phosphorylation over DMSO (eIF2α; at 5 μM, over DMSO) | IC50 (A549 lung cancer cells; A549, read-out: cell growth was inhibited at) | concentration at 1 h ([5]; oral 160 mg/kg) | concentration at 3 h ([5]; oral 160 mg/kg) | concentration at 1 h ([5]; oral 240 mg/kg) | concentration at 3 h ([5]; oral 240 mg/kg) | concentration at 1 h ([5]; oral 320 mg/kg) | concentration at 3 h ([5]; oral 320 mg/kg) | concentration at 6 h ([5]; oral 320 mg/kg, 6 hours)
CC(C)(C)c1ccc(O)c(C2(c3ccccc3)C(=O)Nc3ccccc32)c1 (stereo not shown) [Compound 1181, 3-(5-tert-butyl-2-hydroxy-phenyl)-3-phenyl-1,3-dihydro-indol-2-one] | depletion of ternary complex | phosphorylated eIF2α | 5 | inhibited growth of a cancer cell line (A549) | 3000 nM | + | calcium (Ca^2+) release in a dose dependent manner | decreased squamous cell carcinoma tumor mass in mice; also recorded: decrease in squamous cell carcinoma (KLN) tumor mass | depleted ER-Ca^2+; also recorded: depletion of endoplasmic reticulum (ER) Ca^2+ | – | – | – | – | – | – | – | – | – | –
Cc1cc(C2(c3ccccc3)C(=O)Nc3ccccc32)c(NS(=O)(=O)c2ccc(C(C)(C)C)cc2)cc1O (stereo not shown) [Compound 1430, 4-tert-butyl-N-[5-hydroxy-4-methyl-2-(2-oxo-3-phenyl-2,3-dihydro-1H-indol-3-yl)-phenyl]-benzenesulfonamide] | – | – | 4.8 | – | 900 nM | + | – | – | – | 8 fold | 5 fold | < 1000 nM | 5.7 µM | 3.8 µM | 6.8 µM | 4 µM | 14 µM | 3.8 µM | 2.8 µM
